# Results published in patent US11590139B2, “Substituted aminopurine compounds, compositions thereof, and methods of treatment therewith” (Signal Pharmaceuticals, LLC, priority 2014, dated 2023).
# Test system: Lox-IMVI melanoma cell line
# Test: Lox-IMVI anti-proliferative assay (growth inhibition, Cell Titer-Glo)
# Format: cell-based, human
# Details: Homo sapiens; IC50 activity level in the cell-based Lox-IMVI anti-proliferative assay; read-out: Activity
# Summary of the method: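 First, compound was dispensed as a 10-point 3-fold series (0.5 nM–10 μM, duplicate). Then cells in RPMI + 10% FBS were added and grown 72 h at 37 °C with 0.2% DMSO. Finally, ATP luminescence was read and IC50 calculated versus DMSO control.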
row,SMILES,IC50 [nM]
1,"NC(=O)[C@H]1CC[C@@H](n2c(Nc3c(Cl)cc(Cl)cc3Cl)nc3cnc(N[C@H]4C[C@H](O)C4)nc32)CC1 [Example 300, (1s,4s)-4-(2-((1r,3r)-3-hydroxycyclobutylamino)-8-(2,4,6-trichlorophenylamino)-9H-purin-9-yl)cyclohexanecarboxamide]",500 to 1000
2,"CC(C)Nc1ncc2nc(Nc3c(F)cc(Cl)cc3F)n([C@H]3CC[C@@H](C(N)=O)CC3)c2n1 [Example 124, (1s,4s)-4-(8-(4-chloro-2,6-difluorophenylamino)-2-(isopropylamino)-9H-purin-9-yl)cyclohexanecarboxamide]",> 1000
3,"CC(C)Nc1ncc2nc(Nc3c(Cl)cc(Cl)cc3Cl)n([C@H]3CC[C@@H](C(N)=O)CC3)c2n1 [Example 59, (1s,4s)-4-(2-(isopropylamino)-8-(2,4,6-trichlorophenylamino)-9H-purin-9-yl)cyclohexanecarboxamide]",500 to 1000
4,"NC(=O)[C@H]1CC[C@@H](n2c(Nc3ccc(Cl)c(F)c3F)nc3cnc(NC4CCOCC4)nc32)CC1 [Example 72, (1s,4s)-4-(8-(4-chloro-2,3-difluorophenylamino)-2-(tetrahydro-2H-pyran-4-ylamino)-9H-purin-9-yl)cyclohexanecarboxamide]",250 to 500
5,"NC(=O)[C@H]1CC[C@@H](n2c(Nc3ccc(Cl)cc3Cl)nc3cnc(N[C@@H]4CC[C@@H](O)C4)nc32)CC1 [Example 219, (1S,4s)-4-(8-(2,4-dichlorophenylamino)-2-((1R,3R)-3-hydroxycyclopentylamino)-9H-purin-9-yl)cyclohexanecarboxamide]",> 1000
6,"NC(=O)[C@H]1CC[C@@H](n2c(Nc3c(F)cccc3F)nc3cnc(N[C@H]4CCOC[C@@H]4F)nc32)CC1 [Example 247, (1R,4s)-4-(8-(2,6-difluorophenylamino)-2-((3R,4S)-3-fluorotetrahydro-2H-pyran-4-ylamino)-9H-purin-9-yl)cyclohexanecarboxamide]",> 1000
7,"CC(C)(C)OC(=O)N1CCC[C@@H](Nc2ncc3nc(Nc4c(F)cc(F)cc4Cl)n([C@H]4CC[C@@H](C(N)=O)CC4)c3n2)C1 [Example 161, (R)-tert-butyl 3-(9-((1s,4S)-4-carbamoylcyclohexyl)-8-(2-chloro-4,6-fluorophenylamino)-9H-purin-2-ylamino)piperidine-1-carboxylate]",> 1000
8,"NC(=O)[C@H]1CC[C@@H](n2c(Nc3c(Cl)cc(Cl)cc3Cl)nc3cnc(N[C@@H]4CCOC[C@@H]4F)nc32)CC1 [Example 302, (1S,4s)-4-(2-((3R,4R)-3-fluorotetrahydro-2H-pyran-4-ylamino)-8-(2,4,6-trichlorophenylamino)-9H-purin-9-yl)cyclohexanecarboxamide]",500 to 1000
9,"CC1(C)CC[C@@H](Nc2ncc3nc(Nc4c(Cl)cccc4Cl)n([C@H]4CC[C@@H](C(N)=O)CC4)c3n2)C[C@H]1O [Example 383, (1S,4s)-4-(8-(2,6-dichlorophenylamino)-2-((1R,3R)-3-hydroxy-4,4-dimethylcyclohexylamino)-9H-purin-9-yl)cyclohexanecarboxamide]",> 1000
10,"NC(=O)[C@H]1CC[C@@H](n2c(Nc3c(F)cc(F)cc3Cl)nc3cnc(N[C@H]4COC[C@@H]4O)nc32)CC1 [Example 312, (1R,4s)-4-(8-(2-chloro-4,6-difluorophenylamino)-2-((3S,4R)-4-hydroxytetrahydrofuran-3-ylamino)-9H-purin-9-yl)cyclohexanecarboxamide]",> 1000
11,"NC(=O)[C@H]1CC[C@@H](n2c(Nc3c(F)cccc3F)nc3cnc(N[C@@H]4CCOC[C@H]4F)nc32)CC1 [Example 275, (1S,4s)-4-(8-(2,6-difluorophenylamino)-2-((3S,4R)-3-fluorotetrahydro-2H-pyran-4-ylamino)-9H-purin-9-yl)cyclohexanecarboxamide]",250 to 500
12,"C[C@@H]1CC[C@@H](Nc2ncc3nc(Nc4c(Cl)cccc4Cl)n([C@H]4CC[C@@H](C(N)=O)CC4)c3n2)C[C@H]1O [Example 345, (1S,4s)-4-(8-(2,6-dichlorophenylamino)-2-((1R,3R,4R)-3-hydroxy-4-methylcyclohexylamino)-9H-purin-9-yl)cyclohexanecarboxamide]",> 1000

# Same assay, conditions: Homo sapiens; Lox-IMVI anti-proliferative assay, IC50 activity level; read-out: Activity
row,SMILES,IC50 [nM]
1,"N#Cc1cc(F)c(Nc2nc3cnc(N[C@H]4CCCC[C@H]4O)nc3n2[C@H]2CC[C@@H](C(N)=O)CC2)c(Cl)c1 [Example 517, (1R,4s)-4-(8-(2-chloro-4-cyano-6-fluorophenylamino)-2-((1S,2R)-2-hydroxycyclohexylamino)-9H-purin-9-yl)cyclohexanecarboxamide]",> 1000
2,"NC(=O)[C@H]1CC[C@@H](n2c(Nc3c(F)cc(Cl)cc3F)nc3cnc(N[C@@H]4CCCC[C@H](O)C4)nc32)CC1 [Example 438, (1S,4s)-4-(8-(4-chloro-2,6-difluorophenylamino)-2-((1R,3S)-3-hydroxycycloheptylamino)-9H-purin-9-yl)cyclohexanecarboxamide]",> 1000
3,"NC(=O)[C@H]1CC[C@@H](n2c(Nc3c(Cl)cc(F)cc3Cl)nc3cnc(NC4CCCOCC4)nc32)CC1 (stereo partly shown) [Example 541, (1s,4s)-4-(8-(2,6-dichloro-4-fluorophenylamino)-2-(oxepan-4-ylamino)-9H-purin-9-yl)cyclohexanecarboxamide]",500 to 1000
4,"C[C@]1(C(N)=O)CC[C@@H](n2c(Nc3c(Cl)cc(C#N)cc3Cl)nc3cnc(NC4CCOCC4)nc32)CC1 [Example 535, (1s,4s)-4-(8-(2,6-dichloro-4-cyanophenylamino)-2-(tetrahydro-2H-pyran-4-ylamino)-9H-purin-9-yl)-1-methylcyclohexanecarboxamide]",< 250
5,"NC(=O)[C@H]1CC[C@@H](n2c(Nc3c(Cl)cc(C(F)(F)F)cc3Cl)nc3cnc(N[C@@H]4CCC[C@H](O)C4)nc32)CC1 [Example 454, (1S,4s)-4-(8-(2,6-dichloro-4-(trifluoromethyl)phenylamino)-2-((1R,3S)-3-hydroxycyclohexylamino)-9H-purin-9-yl)cyclohexanecarboxamide]",500 to 1000
6,"NC(=O)[C@H]1CC[C@@H](n2c(Nc3c(Cl)cc(C(F)(F)F)cc3Cl)nc3cnc(NC4CCOCC4)nc32)CC1 [Example 442, (1s,4s)-4-(8-(2,6-dichloro-4-(trifluoromethyl)phenylamino)-2-(tetrahydro-2H-pyran-4-ylamino)-9H-purin-9-yl)cyclohexanecarboxamide]",250 to 500
7,"COC(=O)N1CCC[C@@H](Nc2ncc3nc(Nc4c(Cl)cc(Cl)cc4Cl)n([C@H]4CC[C@@H](C(N)=O)CC4)c3n2)C1 [Example 409, (R)-methyl 3-(9-((1s,4S)-4-carbamoylcyclohexyl)-8-(2,4,6-trichlorophenylamino)-9H-purin-2-ylamino)piperidine-1-carboxylate]",500 to 1000

# Same assay, conditions: Homo sapiens; Lox-IMVI melanoma cell line, anti-proliferative assay; read-out: Activity (IC50 activity level)
row,SMILES,IC50 [nM]
1,"N#Cc1cc(F)c(Nc2nc3cnc(N[C@@H]4CCCN(C(=O)Nc5ccccc5)C4)nc3n2[C@H]2CC[C@@H](C(N)=O)CC2)c(Cl)c1 [Example 785, (R)-3-(9-((1s,4S)-4-carbamoylcyclohexyl)-8-(2-chloro-4-cyano-6-fluorophenylamino)-9H-purin-2-ylamino)-N-phenylpiperidine-1-carboxamide]",> 1000
2,"NC(=O)[C@H]1CC[C@@H](n2c(Nc3c(F)cc(Cl)cc3F)nc3cnc(NC[C@@H]4CCCC[C@H]4O)nc32)CC1 [Example 663, (1R,4s)-4-(8-(4-chloro-2,6-difluorophenylamino)-2-(((1S,2R)-2-hydroxycyclohexyl)methylamino)-9H-purin-9-yl)cyclohexanecarboxamide]",> 1000
3,"C[C@]1(C(N)=O)CC[C@@H](n2c(Nc3c(Cl)cc(C#N)cc3Cl)nc3cnc(NC4CC(F)(F)C4)nc32)CC1 [Example 666, (1s,4s)-4-(8-(2,6-dichloro-4-cyanophenylamino)-2-(3,3-difluorocyclobutylamino)-9H-purin-9-yl)-1-methylcyclohexanecarboxamide]",< 250
4,"C[C@]1(C(N)=O)CC[C@@H](n2c(Nc3c(Cl)cc(C(F)(F)F)cc3Cl)nc3cnc(NC4CCC4)nc32)CC1 [Example 602, (1s,4s)-4-(2-(cyclobutylamino)-8-(2,6-dichloro-4-(trifluoromethyl)phenylamino)-9H-purin-9-yl)-1-methylcyclohexanecarboxamide]",> 1000
5,"N#Cc1cc(Cl)c(Nc2nc3cnc(N[C@H]4CCOC[C@H]4F)nc3n2[C@H]2CC[C@@H](C(N)=O)CC2)c(Cl)c1 [Example 765, (1R,4s)-4-(8-(2,6-dichloro-4-cyanophenylamino)-2-((3S,4S)-3-fluorotetrahydro-2H-pyran-4-ylamino)-9H-purin-9-yl)cyclohexanecarboxamide]",< 250
6,"C[C@]1(C(N)=O)CC[C@@H](n2c(Nc3c(F)cc(F)cc3Cl)nc3cnc(N[C@H]4CCOC[C@H]4F)nc32)CC1 [Example 724, (1R,4s)-4-(8-(2-chloro-4,6-difluorophenylamino)-2-((3S,4S)-3-fluorotetrahydro-2H-pyran-4-ylamino)-9H-purin-9-yl)-1-methylcyclohexanecarboxamide]",< 250
7,"C[C@]1(C(N)=O)CC[C@@H](n2c(Nc3c(F)cc(C#N)cc3Cl)nc3cnc(N[C@H]4CC[C@H](O)C4)nc32)CC1 [Example 649, (1R,4s)-4-(8-(2-chloro-4-cyano-6-fluorophenylamino)-2-((1S,3S)-3-hydroxycyclopentylamino)-9H-purin-9-yl)-1-methylcyclohexanecarboxamide]",250 to 500
8,"C[C@]1(C(N)=O)CC[C@@H](n2c(Nc3c(Cl)cc(Cl)cc3Cl)nc3cnc(N[C@@H]4CCC[C@@H](O)C4)nc32)CC1 [Example 619, (1S,4s)-4-(2-((1R,3R)-3-hydroxycyclohexylamino)-8-(2,4,6-trichlorophenylamino)-9H-purin-9-yl)-1-methylcyclohexanecarboxamide]",500 to 1000
9,"NC(=O)[C@H]1CC[C@@H](n2c(Nc3c(F)cc(F)cc3Cl)nc3cnc(N[C@@H]4CCOC[C@H]4F)nc32)CC1 [Example 630, (1S,4s)-4-(8-(2-chloro-4,6-difluorophenylamino)-2-((3S,4R)-3-fluorotetrahydro-2H-pyran-4-ylamino)-9H-purin-9-yl)cyclohexanecarboxamide]",< 250
